From ChEMBL document CHEMBL1201862, “PubChem BioAssay data set” (2004)
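Values below derive from 48-hour exposures of cells grown in 96-well plates, with endpoints linearly interpolated between the two concentrations bracketing the appropriate inhibition level. GI50: concentration for 50% inhibition of growth.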 Calls of active or inactive are those of the source. Rule as the data show it: active = GI50 up to about 1.1 µM and inactive = higher.

What was measured:
Test in all cases: NCI-60 cell line screen, 48 h
SK-MEL-5 = test system: SK-MEL-5
HOP-92 = test system: HOP-92
A549 = test system: A549
SNB-78 = test system: SNB-78
UO-31 = test system: UO-31
KM12 = test system: KM12
HT-29 = test system: HT-29
RPMI-8226 = test system: RPMI-8226
786-0 = test system: 786-0
SK-MEL-28 = test system: SK-MEL-28
SN12C = test system: SN12C
KM-20L2 = test system: KM-20L2
OVCAR-4 = test system: OVCAR-4
SNB-19 = test system: SNB-19
EKVX = test system: EKVX
SF-295 = test system: SF-295
HCC 2998 = test system: HCC 2998
TK-10 = test system: TK-10
HOP-62 = test system: HOP-62
RXF 393 = test system: RXF 393
U-251 = test system: U-251
IGROV-1 = test system: IGROV-1
SK-OV-3 = test system: SK-OV-3
SF-539 = test system: SF-539
SW-620 = test system: SW-620
UACC-257 = test system: UACC-257
ACHN = test system: ACHN
A498 = test system: A498
SF-268 = test system: SF-268
DLD-1 = test system: DLD-1
HL-60 = test system: HL-60
LOX IMVI = test system: LOX IMVI
MOLT-4 = test system: MOLT-4
CAKI-1 = test system: CAKI-1
M14 = test system: M14
SNB-75 = test system: SNB-75
K562 = test system: K562
NCI-H460 = test system: NCI-H460
DMS-114 = test system: DMS-114
M19-MEL = test system: M19-MEL
LXFL 529 = test system: LXFL 529
CCRF-CEM = test system: CCRF-CEM
NCI-H23 = test system: NCI-H23
OVCAR-8 = test system: OVCAR-8
NCI-H226 = test system: NCI-H226
NCI-H522 = test system: NCI-H522
SK-MEL-2 = test system: SK-MEL-2
COLO 205 = test system: COLO 205
OVCAR-3 = test system: OVCAR-3
Malme-3M = test system: Malme-3M
OVCAR-5 = test system: OVCAR-5
DU-145 = test system: DU-145
HCT-116 = test system: HCT-116
HCT-15 = test system: HCT-15
MDA-MB-231 = test system: MDA-MB-231
Hs-578T = test system: Hs-578T
T47D = test system: T47D
BT-549 = test system: BT-549
NCI/ADR-RES = test system: NCI/ADR-RES
MDA-MB-435 = test system: MDA-MB-435
SR = test system: SR
PC-3 = test system: PC-3
MCF7 = test system: MCF7
MDA-N = test system: MDA-N
UACC-62 = test system: UACC-62

**Q.** How did the GI50 (SK-MEL-5) turn out when CC1=C(C(=O)Nc2cccc(Cl)c2)C(c2ccccc2O)C(C(=O)Nc2cccc(Cl)c2)=C(C)N1 was run?
**A.** 17.4 µM (inactive)

**Q.** What about the GI50 (HOP-92) of the same molecule?
**A.** 20.1 µM (inactive)

**Q.** What about the GI50 (A549) of the same molecule?
**A.** 20.2 µM (inactive)

**Q.** What about the GI50 (SNB-78) of the same molecule?
**A.** 24.5 µM (inactive)

**Q.** What about the GI50 (UO-31) of the same molecule?
**A.** 17.2 µM (inactive)

**Q.** And the GI50 (KM12)?
**A.** 16.8 µM (inactive)

**Q.** And the GI50 (HT-29)?
**A.** 18.8 µM (inactive)

**Q.** What about the GI50 (RPMI-8226) of the same molecule?
**A.** 20.7 µM (inactive)

**Q.** And the GI50 (786-0)?
**A.** 15.7 µM (inactive)

**Q.** What about the GI50 (SK-MEL-28) of the same molecule?
**A.** 17.1 µM (inactive)

**Q.** What about the GI50 (SN12C) of the same molecule?
**A.** 21.8 µM (inactive)

**Q.** What about the GI50 (KM-20L2) of the same molecule?
**A.** 18.4 µM (inactive)

**Q.** And the GI50 (OVCAR-4)?
**A.** 18.3 µM (inactive)

**Q.** And the GI50 (SNB-19)?
**A.** 26.1 µM (inactive)

**Q.** And the GI50 (EKVX)?
**A.** 22.4 µM (inactive)

**Q.** And the GI50 (SF-295)?
**A.** 22.1 µM (inactive)

**Q.** What about the GI50 (HCC 2998) of the same molecule?
**A.** 18.9 µM (inactive)

**Q.** And the GI50 (TK-10)?
**A.** 18.9 µM (inactive)

**Q.** What about the GI50 (HOP-62) of the same molecule?
**A.** 19.3 µM (inactive)

**Q.** And the GI50 (RXF 393)?
**A.** 17.2 µM (inactive)

**Q.** And the GI50 (U-251)?
**A.** 19.9 µM (inactive)

**Q.** And the GI50 (IGROV-1)?
**A.** 23.9 µM (inactive)

**Q.** And the GI50 (SK-OV-3)?
**A.** 24.3 µM (inactive)

**Q.** And the GI50 (SF-539)?
**A.** 16.7 µM (inactive)

**Q.** And the GI50 (SW-620)?
**A.** 18.6 µM (inactive)

**Q.** And the GI50 (UACC-257)?
**A.** 20.2 µM (inactive)

**Q.** And the GI50 (ACHN)?
**A.** 23.7 µM (inactive)

**Q.** And the GI50 (A498)?
**A.** 19.5 µM (inactive)

**Q.** What about the GI50 (SF-268) of the same molecule?
**A.** 17.7 µM (inactive)

**Q.** What about the GI50 (DLD-1) of the same molecule?
**A.** 18.4 µM (inactive)

**Q.** What about the GI50 (HL-60) of the same molecule?
**A.** 21 µM (inactive)

**Q.** And the GI50 (LOX IMVI)?
**A.** 21.8 µM (inactive)

**Q.** And the GI50 (MOLT-4)?
**A.** 25.2 µM (inactive)

**Q.** What about the GI50 (CAKI-1) of the same molecule?
**A.** 22 µM (inactive)

**Q.** And the GI50 (M14)?
**A.** 17.4 µM (inactive)

**Q.** What about the GI50 (SNB-75) of the same molecule?
**A.** 14.9 µM (inactive)

**Q.** And the GI50 (K562)?
**A.** 22.4 µM (inactive)

**Q.** And the GI50 (NCI-H460)?
**A.** 21.6 µM (inactive)

**Q.** And the GI50 (DMS-114)?
**A.** 22.4 µM (inactive)

**Q.** What about the GI50 (M19-MEL) of the same molecule?
**A.** 19.4 µM (inactive)

**Q.** And the GI50 (LXFL 529)?
**A.** 21.8 µM (inactive)

**Q.** What about the GI50 (CCRF-CEM) of the same molecule?
**A.** 22.3 µM (inactive)

**Q.** And the GI50 (NCI-H23)?
**A.** 17.3 µM (inactive)

**Q.** And the GI50 (OVCAR-8)?
**A.** 25.2 µM (inactive)

**Q.** And the GI50 (NCI-H226)?
**A.** 17.7 µM (inactive)

**Q.** What about the GI50 (NCI-H522) of the same molecule?
**A.** 17.1 µM (inactive)

**Q.** And the GI50 (SK-MEL-2)?
**A.** 16.1 µM (inactive)

**Q.** And the GI50 (COLO 205)?
**A.** 20 µM (inactive)

**Q.** And the GI50 (OVCAR-3)?
**A.** 20.6 µM (inactive)

**Q.** What about the GI50 (Malme-3M) of the same molecule?
**A.** 19.4 µM (inactive)

**Q.** And the GI50 (OVCAR-5)?
**A.** 19.4 µM (inactive)

**Q.** What does the source list for CC(C)=NOC(=O)CNC(=O)C(Cc1ccccc1)NC(=O)C(C)NC(=O)OC(C)(C)C (stereo not given)?
**A.** GI50 (SK-MEL-5): > 100 µM (inactive); GI50 (HOP-92): > 100 µM (inactive); GI50 (A549): > 100 µM (inactive); GI50 (UO-31): > 100 µM (inactive); GI50 (KM12): > 100 µM (inactive); GI50 (HT-29): > 100 µM (inactive); GI50 (RPMI-8226): > 100 µM (inactive); GI50 (786-0): > 100 µM (inactive); GI50 (SK-MEL-28): > 100 µM (inactive); GI50 (SN12C): > 100 µM (inactive); GI50 (DU-145): > 100 µM (inactive); GI50 (OVCAR-4): > 100 µM (inactive); GI50 (SNB-19): > 100 µM (inactive); GI50 (EKVX): > 100 µM (inactive); GI50 (SF-295): > 100 µM (inactive); GI50 (HCC 2998): > 100 µM (inactive); GI50 (TK-10): > 100 µM (inactive); GI50 (HCT-116): > 100 µM (inactive); GI50 (HOP-62): > 100 µM (inactive); GI50 (RXF 393): > 100 µM (inactive); GI50 (HCT-15): > 100 µM; GI50 (U-251): > 100 µM (inactive); GI50 (IGROV-1): > 100 µM (inactive); GI50 (MDA-MB-231): > 100 µM (inactive); GI50 (SK-OV-3): > 100 µM (inactive); GI50 (SF-539): > 100 µM (inactive); GI50 (SW-620): > 100 µM (inactive); GI50 (UACC-257): > 100 µM (inactive); GI50 (ACHN): > 100 µM (inactive); GI50 (A498): > 100 µM (inactive); GI50 (SF-268): > 100 µM (inactive); GI50 (HL-60): > 100 µM (inactive); GI50 (LOX IMVI): > 100 µM (inactive); GI50 (Hs-578T): > 100 µM (inactive); GI50 (MOLT-4): > 100 µM (inactive); GI50 (CAKI-1): > 100 µM (inactive); GI50 (T47D): > 100 µM (inactive); GI50 (M14): > 100 µM (inactive); GI50 (SNB-75): > 100 µM (inactive); GI50 (BT-549): > 100 µM (inactive); GI50 (K562): > 100 µM (inactive); GI50 (NCI-H460): > 100 µM (inactive); GI50 (NCI/ADR-RES): > 100 µM (inactive); GI50 (CCRF-CEM): > 100 µM (inactive); GI50 (MDA-MB-435): > 100 µM (inactive); GI50 (NCI-H23): > 100 µM (inactive); GI50 (SR): > 100 µM (inactive); GI50 (PC-3): > 100 µM (inactive); GI50 (OVCAR-8): > 100 µM (inactive); GI50 (NCI-H226): > 100 µM (inactive); GI50 (MCF7): > 100 µM (inactive); GI50 (MDA-N): > 100 µM (inactive); GI50 (NCI-H522): > 100 µM (inactive); GI50 (SK-MEL-2): > 100 µM (inactive); GI50 (UACC-62): > 100 µM (inactive); GI50 (COLO 205): > 100 µM (inactive); GI50 (OVCAR-3): > 100 µM (inactive); GI50 (Malme-3M): > 100 µM (inactive); GI50 (OVCAR-5): > 100 µM (inactive)
